# Values quoted from earlier work as cited in patent US20080124386A1, “APOPTOSIS-MIMICKING SYNTHETIC ENTITIES AND USE THEREOF IN MEDICAL TREATMENT” (Vasogen Ireland Limited, priority 2000, published 2008).
# How the values were obtained:
# spatial memory = details: oral, 50 mg/day; compared with placebo
# Alzheimer's disease = details: oral, 300 mg/day; compared with placebo
substance,measurement,setting,value
phosphatidylserine [PS],spatial memory in animal models,spatial memory,statistically significant improvements
same,treatment of Alzheimer's disease in humans,Alzheimer's disease,statistically significant improvements
